Data on 26 compounds can be found in patent publication US12187701B2, “Taire family kinase inhibitors and uses thereof” (Dana-Farber Cancer Institute, Inc., priority 2018, dated 2025).

The IC50 is the point on the concentration scale where inhibition reaches its midpoint.

One experiment has as its target Cdk14/CycY (Homo sapiens (Human), UniProt O94921). Description: Lanthascreen Eu kinase binding assay for Cdk14/CycY with 30 minute pre-incubation. Conditions: 30 minute pre-incubation of kinase with compound; read-out: IC50 CDK14 binding by Lanthascreen. As for the experimental part: Lanthascreen Eu kinase binding assays were conducted for Cdk14/CycY largely as performed in the commercial assay service by Life Technologies, but included a 30 minute pre-incubation step of the kinase with candidate compounds to facilitate covalent bond formation.

A further experiment relates to HCT116 cells. Description: Antiproliferation assay, Cell Titer Glo, 72 hours. The experiment is classed as cell-based. As for the experimental part:
HCT116 cells were plated in 384-well plates at 750 cells/well in 50 ul fresh media (McCoy's 5A+10% FBS+1% Penn/Strep) and treated with 0.1 μl candidate compounds in four-fold dilution series using the Janus pinner. Cells were incubated with compounds for 72 hours in 37° C. 5% CO2. Anti-proliferative effects of these compounds were assessed 72 hours after compound addition using Cell Titer Glo (Promega cat #G7571) as described in product manual by luminescence measurements using an Envision platereader. All proliferation assays were performed in biological quadruplicate. IC50 values were determined using a non-linear regression curve fit in GraphPad Prism 6.
(In ATP-based viability assays light output follows the ATP content of the culture.)

Where two headings read alike, the source gives them in different places.

Sequence of Cdk14/CycY (O94921 whole entry): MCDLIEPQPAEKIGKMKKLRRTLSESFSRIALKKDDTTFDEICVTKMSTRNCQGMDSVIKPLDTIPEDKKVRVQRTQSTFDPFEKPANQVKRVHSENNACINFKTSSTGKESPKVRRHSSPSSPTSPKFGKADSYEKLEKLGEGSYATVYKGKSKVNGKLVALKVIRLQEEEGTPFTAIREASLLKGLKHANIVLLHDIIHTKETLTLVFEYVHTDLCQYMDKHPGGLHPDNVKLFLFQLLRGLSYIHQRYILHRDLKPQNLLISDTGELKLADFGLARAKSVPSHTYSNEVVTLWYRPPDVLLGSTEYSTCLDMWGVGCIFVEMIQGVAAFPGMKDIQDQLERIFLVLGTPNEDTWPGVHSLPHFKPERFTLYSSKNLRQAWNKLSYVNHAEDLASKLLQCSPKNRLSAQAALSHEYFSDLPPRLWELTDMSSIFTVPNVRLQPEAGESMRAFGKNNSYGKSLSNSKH
Sequence of Cdk14/CycY (Q8ND76 whole entry partner): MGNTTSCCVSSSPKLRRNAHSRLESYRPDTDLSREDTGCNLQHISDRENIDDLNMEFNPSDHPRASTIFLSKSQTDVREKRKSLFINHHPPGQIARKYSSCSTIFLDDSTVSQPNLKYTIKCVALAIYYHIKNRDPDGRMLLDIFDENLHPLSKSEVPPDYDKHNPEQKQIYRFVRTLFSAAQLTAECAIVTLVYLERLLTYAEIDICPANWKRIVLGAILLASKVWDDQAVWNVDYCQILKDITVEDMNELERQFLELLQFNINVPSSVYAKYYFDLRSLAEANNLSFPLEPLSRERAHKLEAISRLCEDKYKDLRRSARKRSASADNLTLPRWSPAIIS

For the compound `C=CC(=O)Nc1ccc(S(=O)(=O)N2CCC(NC(=O)c3n[nH]cc3NC(=O)c3c(Cl)cccc3Cl)CC2)cc1` [FMF-03-197-1, N-(1-((4-acrylamidophenyl)sulfonyl)piperidin-4-yl)-4-(2,6-dichlorobenzamido)-1H-pyrazole-3-carboxamide], the IC50 at Cdk14/CycY was 62 nM; in the experiment with HCT116 cells (Homo sapiens, HCT-116, 72 h) it was 31 nM.

`C=CC(=O)Nc1cccc(NC(=O)c2n[nH]cc2NC(=O)c2c(Cl)cccc2Cl)c1` [FMF-03-188-1, N-(3-acrylamidophenyl)-4-(2,6-dichlorobenzamido)-1H-pyrazole-3-carboxamide]: the half-inhibitory concentration (IC50) was more than 1000 nM at Cdk14/CycY and 169 nM in the experiment on HCT116 cells (Homo sapiens, HCT-116, 72 h).

Take `C=CC(=O)Nc1ccc(C(=O)Nc2cccc(NC(=O)c3n[nH]cc3NC(=O)c3c(Cl)cccc3Cl)c2)cc1` [FMF-03-203-1, N-(3-(4-acrylamidobenzamido)phenyl)-4-(2,6-dichlorobenzamido)-1H-pyrazole-3-carboxamide]: the IC50 at Cdk14/CycY worked out at 609 nM; with HCT116 cells (Homo sapiens, HCT-116, 72 h) it was 6 nM.

Turning to `C=CC(=O)Nc1cccc(S(=O)(=O)N2CCC(NC(=O)c3n[nH]c(C)c3NC(=O)c3c(Cl)cccc3Cl)CC2)c1` [FMF-04-181-1, N-(1-((3-acrylamidophenyl)sulfonyl)piperidin-4-yl)-4-(2,6-dichlorobenzamido)-5-methyl-1H-pyrazole-3-carboxamide], the IC50 on Cdk14/CycY was more than 1000 nM; with HCT116 cells (Homo sapiens, HCT-116, 72 h), more than 10000 nM.

For the compound `CN(C)C/C=C/C(=O)Nc1cccc(N2CC[C@@H](NC(=O)c3n[nH]cc3NC(=O)c3c(Cl)cccc3Cl)C2)c1` [FMF-05-087-2, (R,E)-4-(2,6-dichlorobenzamido)-N-(1-(3-(4-(dimethylamino)but-2-enamido)phenyl)pyrrolidin-3-yl)-1H-pyrazole-3-carboxamide], the IC50 on Cdk14/CycY came out at 1300 nM; with HCT116 cells (Homo sapiens, HCT-116, 72 h), 123 nM.

For `CN(C)C/C=C/C(=O)Nc1cccc(C(=O)Nc2cccc(NC(=O)c3n[nH]cc3NC(=O)c3c(Cl)cccc3Cl)c2)c1` [FMF-04-196-1, (E)-4-(2,6-dichlorobenzamido)-N-(3-(3-(4-(dimethylamino)but-2-enamido)benzamido)phenyl)-1H-pyrazole-3-carboxamide], the IC50 came to 41 nM at Cdk14/CycY and 366 nM with HCT116 cells (Homo sapiens, HCT-116, 72 h).

On to `C=CC(=O)Nc1cccc(N2CC[C@@H](NC(=O)c3n[nH]cc3NC(=O)c3c(Cl)cccc3Cl)C2)c1` [FMF-05-087-1, (R)—N-(1-(3-acrylamidophenyl)pyrrolidin-3-yl)-4-(2,6-dichlorobenzamido)-1H-pyrazole-3-carboxamide], for which the results for the half-inhibitory concentration (IC50) at Cdk14/CycY and in the experiment on HCT116 cells were 1100 nM and 22 nM, respectively.

On to `COc1cc(OC)c(C(=O)Nc2c[nH]nc2C(=O)NC2CCN(S(=O)(=O)c3cccc(NC(=O)/C=C/CN(C)C)c3)CC2)c(OC)c1` [FMF-05-028-2, (E)-N-(1-((3-(4-(dimethylamino)but-2-enamido)phenyl)sulfonyl)piperidin-4-yl)-4-(2,4,6-trimethoxybenzamido)-1H-pyrazole-3-carboxamide], for which the half-maximal inhibitory concentration (IC50) at Cdk14/CycY was 221 nM; in the experiment with HCT116 cells (Homo sapiens, HCT-116, 72 h), more than 10000 nM.

On to `C=CC(=O)N1CCC[C@@H](NC(=O)c2n[nH]cc2NC(=O)c2c(Cl)cccc2Cl)C1` [FMF-03-183-1, (R)—N-(1-acryloylpiperidin-3-yl)-4-(2,6-dichlorobenzamido)-1H-pyrazole-3-carboxamide], for which the IC50 on Cdk14/CycY was 569 nM; in the experiment with HCT116 cells (Homo sapiens, HCT-116, 72 h), 39 nM.

Consider `C=CC(=O)Nc1cccc(S(=O)(=O)N2CCC(NC(=O)c3nscc3NC(=O)c3c(Cl)cccc3Cl)CC2)c1` [FMF-04-089-1, N-(1-((3-acrylamidophenyl)sulfonyl)piperidin-4-yl)-4-(2,6-dichlorobenzamido)isothiazole-3-carboxamide], for which the IC50 on Cdk14/CycY is more than 1000 nM; in the experiment with HCT116 cells (Homo sapiens, HCT-116, 72 h), 563 nM.

In the case of `C=CC(=O)Nc1cccc(C(=O)N2CCC[C@@H](NC(=O)c3n[nH]cc3NC(=O)c3c(Cl)cccc3Cl)C2)c1` [FMF-04-059-1, (R)—N-(1-(3-acrylamidobenzoyl)piperidin-3-yl)-4-(2,6-dichlorobenzamido)-1H-pyrazole-3-carboxamide], the IC50 on Cdk14/CycY was more than 1000 nM; in the experiment on HCT116 cells (Homo sapiens, HCT-116, 72 h), 4040 nM.

In the case of `C=CC(=O)Nc1cccc(S(=O)(=O)N2CCC(NC(=O)c3n[nH]cc3NC(=O)c3ccccc3)CC2)c1` [FMF-05-027-1, N-(1-((3-acrylamidophenyl)sulfonyl)piperidin-4-yl)-4-benzamido-1H-pyrazole-3-carboxamide], the half-inhibitory concentration (IC50) on Cdk14/CycY was determined as 315 nM; in the experiment with HCT116 cells (Homo sapiens, HCT-116, 72 h), 382 nM.

As to `CN(C)C/C=C/C(=O)Nc1cccc(NC(=O)c2n[nH]cc2NC(=O)c2c(Cl)cccc2Cl)c1` [FMF-03-188-2, (E)-4-(2,6-dichlorobenzamido)-N-(3-(4-(dimethylamino)but-2-enamido)phenyl)-1H-pyrazole-3-carboxamide], the 50% inhibitory concentration (IC50) at Cdk14/CycY came to 88 nM; in the experiment on HCT116 cells (Homo sapiens, HCT-116, 72 h), 723 nM.

With `C=CC(=O)Nc1cccc(CN2CCC(NC(=O)c3n[nH]cc3NC(=O)c3c(Cl)cc(Cl)cc3Cl)CC2)c1` [FMF-04-158-1, N-(1-(3-acrylamidobenzyl)piperidin-4-yl)-4-(2,4,6-trichlorobenzamido)-1H-pyrazole-3-carboxamide], the half-inhibitory concentration (IC50) came out at 198 nM at Cdk14/CycY and 11 nM with HCT116 cells (Homo sapiens, HCT-116, 72 h).

Consider `C=CC(=O)Nc1cccc(S(=O)(=O)N2CC[C@@H](NC(=O)c3n[nH]cc3NC(=O)c3c(Cl)cccc3Cl)C2)c1` [FMF-05-065-1, (R)-N-(1-((3-acrylamidophenyl)sulfonyl)pyrrolidin-3-yl)-4-(2,6-dichlorobenzamido)-1H-pyrazole-3-carboxamide], for which the half-maximal inhibitory concentration (IC50) is more than 10000 nM on Cdk14/CycY and 467 nM in the experiment on HCT116 cells (Homo sapiens, HCT-116, 72 h).

As for `CN(C)C/C=C/C(=O)Nc1ccc(N2CC[C@H](NC(=O)c3n[nH]cc3NC(=O)c3c(Cl)cccc3Cl)C2)cc1` [FMF-05-074-2, (S,E)-4-(2,6-dichlorobenzamido)-N-(1-(4-(4-(dimethylamino)but-2-enamido)phenyl)pyrrolidin-3-yl)-1H-pyrazole-3-carboxamide], the half-maximal inhibitory concentration (IC50) on Cdk14/CycY was 116 nM; with HCT116 cells (Homo sapiens, HCT-116, 72 h) it was more than 10000 nM.

On to `CN(C)C/C=C/C(=O)Nc1cccc(S(=O)(=O)N2CCC[C@@H](NC(=O)c3n[nH]cc3NC(=O)c3c(Cl)cccc3Cl)C2)c1` [FMF-04-057-2, (R,E)-4-(2,6-dichlorobenzamido)-N-(1-((3-(4-(dimethylamino)but-2-enamido)phenyl)sulfonyl)piperidin-3-yl)-1H-pyrazole-3-carboxamide], for which the IC50 at Cdk14/CycY is more than 1000 nM; in the experiment with HCT116 cells (Homo sapiens, HCT-116, 72 h), 9840 nM.

Regarding `C=CC(=O)Nc1ccc(C(=O)N2CCC(NC(=O)c3n[nH]cc3NC(=O)c3c(Cl)cccc3Cl)CC2)cc1` [FMF-03-186-1, N-(1-(4-acrylamidobenzoyl)piperidin-4-yl)-4-(2,6-dichlorobenzamido)-1H-pyrazole-3-carboxamide], the IC50 on Cdk14/CycY was 126 nM; in the experiment on HCT116 cells (Homo sapiens, HCT-116, 72 h), 42 nM.

`Cc1cc(NC(=O)c2cccc(NC(=O)/C=C/CN(C)C)c2)ccc1NC(=O)c1n[nH]cc1NC(=O)c1c(Cl)cccc1Cl` [FMF-04-085-2, (E)-4-(2,6-dichlorobenzamido)-N-(4-(3-(4-(dimethylamino)but-2-enamido)benzamido)-2-methylphenyl)-1H-pyrazole-3-carboxamide]: the half-maximal inhibitory concentration (IC50) at Cdk14/CycY came out at 1160 nM; with HCT116 cells (Homo sapiens, HCT-116, 72 h), 320 nM.

As to `C=CC(=O)Nc1cccc(S(=O)(=O)N2CC[C@H](NC(=O)c3n[nH]cc3NC(=O)c3c(Cl)cccc3Cl)C2)c1` [FMF-05-068-1, (S)—N-(1-((3-acrylamidophenyl)sulfonyl)pyrrolidin-3-yl)-4-(2,6-dichlorobenzamido)-1H-pyrazole-3-carboxamide], the half-maximal inhibitory concentration (IC50) came out at 450 nM at Cdk14/CycY and 6200 nM with HCT116 cells (Homo sapiens, HCT-116, 72 h).

Regarding `C=CC(=O)Nc1ccc(S(=O)(=O)N2CCC[C@@H](NC(=O)c3n[nH]cc3NC(=O)c3c(Cl)cccc3Cl)C2)cc1` [FMF-04-056-1, (R)—N-(1-((4-acrylamidophenyl)sulfonyl)piperidin-3-yl)-4-(2,6-dichlorobenzamido)-1H-pyrazole-3-carboxamide], the IC50 at Cdk14/CycY is more than 1000 nM; in the experiment with HCT116 cells (Homo sapiens, HCT-116, 72 h), more than 10000 nM.

On to `CN(C)C/C=C/C(=O)N1CCC(NC(=O)c2n[nH]cc2NC(=O)c2c(Cl)cccc2Cl)CC1` [FMF-03-177-2, (E)-4-(2,6-dichlorobenzamido)-N-(1-(4-(dimethylamino)but-2-enoyl)piperidin-4-yl)-1H-pyrazole-3-carboxamide], for which the IC50 stood at 208 nM at Cdk14/CycY and 1060 nM with HCT116 cells (Homo sapiens, HCT-116, 72 h).

Take `C=CC(=O)Nc1ccc(CN2CC[C@H](NC(=O)c3n[nH]cc3NC(=O)c3c(Cl)cccc3Cl)C2)cc1` [FMF-05-070-1, (S)—N-(1-(4-acrylamidobenzyl)pyrrolidin-3-yl)-4-(2,6-dichlorobenzamido)-1H-pyrazole-3-carboxamide]: the half-inhibitory concentration (IC50) on Cdk14/CycY was 572 nM; in the experiment with HCT116 cells (Homo sapiens, HCT-116, 72 h) it was 31 nM.

`CN(C)C/C=C/C(=O)Nc1cccc(N2CC[C@H](NC(=O)c3n[nH]cc3NC(=O)c3c(Cl)cccc3Cl)C2)c1` [FMF-05-086-2, (S,E)-4-(2,6-dichlorobenzamido)-N-(1-(3-(4-(dimethylamino)but-2-enamido)phenyl)pyrrolidin-3-yl)-1H-pyrazole-3-carboxamide]: the IC50 at Cdk14/CycY is 218 nM; in the experiment with HCT116 cells (Homo sapiens, HCT-116, 72 h) it was more than 10000 nM.

In the case of `C=CC(=O)Nc1ccc(CN2CC[C@@H](NC(=O)c3n[nH]cc3NC(=O)c3c(Cl)cccc3Cl)C2)cc1` [FMF-05-072-1, (R)—N-(1-(4-acrylamidobenzyl)pyrrolidin-3-yl)-4-(2,6-dichlorobenzamido)-1H-pyrazole-3-carboxamide], the concentration for half-maximal inhibition (IC50) at Cdk14/CycY is 257 nM; with HCT116 cells (Homo sapiens, HCT-116, 72 h), less than 1 nM.

For the compound `C=CC(=O)Nc1ccc(C(=O)Nc2ccc(NC(=O)c3n[nH]cc3NC(=O)c3c(Cl)cccc3Cl)cc2)cc1` [FMF-04-012-1], the IC50 was 169 nM on Cdk14/CycY and 8 nM with HCT116 cells (Homo sapiens, HCT-116, 72 h).
